Our source for the melting point values is a melting point compilation (Tetko et al.; mined from patent text by program, amines drawn as free bases though some values may be those of a salt).

As a reminder, the melting point is the temperature, or range, at which the solid turns liquid. The compound `OCC1CC(O)C(n2cnc3c(-n4cccc4)ncnc32)O1` (centres undefined) displayed a melting point of 175 to 176 °C.
For the compound `CN(C)C(=O)Oc1c(N2CCCC2)c(=O)n(-c2ccccc2)c2ncccc12`, the melting point lay within 218 to 220 °C.
For `CCOC(=O)C1CN2c3c(cc4ccccc4c3CCC2C)C1=O` (centres undefined) the value was 178 to 180 °C; for `COC(=O)c1cc(S(=O)(=O)N(C)C)c(F)c(F)c1Nc1ccc(I)cc1Cl`, 154 to 156 °C.
The same measure for `CCOC(=O)c1cc(NCc2ccccc2)c(Nc2ccccc2)c(S(=O)(=O)Nc2ccccc2)c1`: 166 to 167 °C; for `O=C1CC2(CCCC2)C(=O)N1c1cc(Cc2n[nH]c(=O)c3ccccc23)ccc1F`: 215 to 220 °C; for `O=C1C(=O)c2ccc(F)cc2C2=C1SCC1(CCN(CC(O)Cc3ccccc3)CC1)O2` (centres undefined): 76 to 77 °C.
For `CCNC(=O)CN1C(=O)C(NC(=O)OCc2ccccc2)N=C(c2ccccc2)c2ccccc21` (centres undefined) the value was 149 °C; for `O=C1c2ccccc2C(=O)c2sc(Nc3ccccc3)nc21`, > 260 °C.
The compound `CCCCCC(CC(=O)Nc1cc(C(N)=O)ccc1C(C)(C)C)c1ccc(OCCOC)cc1OC` (centres undefined) yielded a melting point of 134 to 135 °C.
The compound `CS(=O)(=O)c1ccc(-c2cnn(CC(F)(F)F)c(=O)c2OC2CCCCC2)cc1` returned a melting point of 129 to 130 °C.
The same measure for `CC12CC3CC(C)(C1)CC(NC(=O)CCl)(C3)C2`: 107 °C; for `CS(=O)c1ccc2ncn(C=CC(=O)O)c(=O)c2c1` (centres undefined): 275 to 276 °C; for `CCOC(=O)c1ccc(S(C)(=O)=O)c(-c2cc(C)no2)c1C`: 83 to 86 °C.
For the compound `COc1ccc(-c2nc(-c3cccn3CC(=O)OC(C)C(C)C)sc2-c2ccc(OC)cc2)cc1` (centres undefined), the melting point is 88.5 to 91.5 °C.
The compound `O=C(NC(=O)c1c(F)cccc1F)Nc1cc(Cl)c(OC(F)(F)C(F)(F)F)cc1Cl` yielded a melting point of 178 to 179 °C.
`CC1(C)Nc2cccc3cccc(c23)N1` gave a melting point of 114 to 115 °C.
Consider `O=C(O)C1Cc2c(c(Cl)cc3c(-c4ccccc4F)noc23)O1` (centres undefined), for which the melting point was in the range of 199 to 200 °C.
The compound `O=C(CCc1ccncc1)c1c(O)c2cccnc2n(-c2cccc([N+](=O)[O-])c2)c1=O` gave a melting point of 174 to 177 °C.
The same measure for `CCC1(C)CC(=O)C2(C)CCC3c4ccc(OC)cc4CCC3C12` (centres undefined): 104 to 107 °C; for `O=c1cc(CO)oc2cc(S)ccc12`: 139 to 140 °C; for `COc1cc2c(cc1OCCCN1CCC(c3noc4cc(F)ccc34)CC1)CCCC2=O`: 129 to 131 °C.
`CCOC(=O)N1CCN(C(=O)C2CCC(=O)N2)CC1` (centres undefined) showed a melting point of 147 to 148 °C.
Regarding `COCn1ccnc1C(O)(c1ccc(Cl)cc1)c1ccc(C(C)(C)C)cc1` (centres undefined), the melting point lay within 162 to 163 °C.
Consider `COc1ccc(C2=NN(Cc3ccncc3)C(=O)[C@H]3CCCC[C@@H]23)cc1OC` (relative stereo), for which the melting point was 87 to 89 °C.
`CC[C@@]12C/C(=C\c3ccccc3)C(=O)C[C@H]1CCc1cc(O)ccc12` registered a melting point of 265 to 266 °C.
In turn, `CCc1cccc(CC)c1NC(=O)c1c(-c2ccccc2)oc(C)cc1=O` yielded a melting point of 186 to 189 °C.
`CN(C)CCc1c[nH]c2ccc(CCC(=O)NCc3ccc(NS(C)(=O)=O)cc3)cc12` showed a melting point of 78 to 82 °C.
Compound `CN(N)C(=S)Nc1ccc(C#N)cc1` yielded a melting point of 178 to 179 °C.
In turn, `O=C(O)C(=O)c1ccc(OCCOc2ccc3ccccc3c2)s1` registered a melting point of 152 to 154 °C.
The compound `COCCOn1nnc2ccc(Cn3ccnc3)cc21` gave a melting point of 77 °C.
With `CCOCc1nc2c(N)nc3cccnc3c2n1CC(C)(C)O`, the melting point was 157 to 159 °C.
For `COC(=O)C1=C(C)NC(CO)=C(C(=O)OC)C1c1ccccc1[N+](=O)[O-]` (centres undefined) the value was 164 to 165 °C; for `c1ccc2c(c1)nc1c3c(onc32)CCC1`, 149 to 150 °C.
`O=C(NC1CCN(C(=O)CCCC2(C(=O)NCC(F)(F)F)c3ccccc3-c3ccccc32)CC1)c1ccccc1Oc1ccccc1` showed a melting point of 96 to 98 °C.
For `CC(=O)N1c2ccc(-c3ccc(CN4CCCCC4)cc3)cc2C(Nc2ccc(F)cc2)CC1C` (centres undefined) the value was 106 °C; for `CC1(C)CC(C)(C)CC(C)(NC=O)C1`, 104 to 106 °C.
With `Cc1sc(N)c(C(=O)c2ccc(Cl)s2)c1C`, the melting point fell in the range of 125 to 127 °C.
`CCCCCCCCCCCN=C=S` displayed a melting point of 71 to 72 °C.
The same measure for `O=C1Nc2cccnc2Nc2ncccc21`: > 340 °C.
The same measure for `CCOCc1nc2c(NC(=O)c3ccccc3)nc3ccccc3c2n1CC(C)(C)NS(C)(=O)=O`: 80 to 83 °C.
Compound `Nc1ncnc2c1ncn2COCCO` came in with a melting point of 200 °C.
For `CC1CC(=O)c2c(C(=O)O)c[nH]c2C1` (centres undefined) the value was 210 to 211 °C.
The same measure for `Cc1ccc2c(c1)[C@@]1(C)Cc3ccccc3[C@@]1(C)N2` (relative stereo): 208 to 212 °C.
For `CCCCCCCCCCCCCC(=O)c1cc(O)c(C)c(C)c1O` the value was 100 °C; for `N#CC(c1ccccc1)(c1ccccc1)c1ccc([N+](=O)[O-])cn1`, 94 to 99 °C; for `Cc1nc2cccc(OCC(C)(C)C(=O)NCC(C)C)c2c(N)c1C(=O)O`, 176 to 179 °C.
`CCN1C(=O)C(C(=O)Nc2cccc(C(=O)Nc3ccc(Br)cc3)c2)c2cc(C(C)=O)ccc21` (centres undefined) yielded a melting point of 117 to 120 °C.
Turning to `CS(=O)(=O)Oc1ccc(S)cc1`, the melting point is 66 to 68 °C.
The compound `C=Cc1ccccc1C(=O)n1nnc2ccccc2c1=O` came in with a melting point of 120 °C.
Take `OCC1CCCn2c(cc3ccccc32)C1` (centres undefined): the melting point fell in the range of 109 to 111 °C.
For `O=c1[nH]cccc1CCCCCCCCCCCCc1ccc[nH]c1=O` the value was 210 °C; for `CSc1ccc(C(=O)C(=O)c2ccc(Cl)c(Cl)c2)cc1`, 249 to 251 °C; for `Cc1c(Cl)n(C)n(C)c1=O`, 37 to 38 °C.
The same measure for `CCCCCCCCCCCCCCCCSCC(CNS(=O)(=O)CCCI)n1nnc(C)n1` (centres undefined): 50 to 51 °C.
Take `CN(C)CCOc1ccc2[nH]c(C(=O)N3CC(CCl)c4c3cc(OCc3ccccc3)c3ncccc43)cc2c1` (centres undefined): the melting point lay in the range of 176 to 179 °C.
Turning to `Nc1nc(Cl)nc(NC2CC2)n1`, the melting point lay within 188 to 189 °C.
The compound `O=C1CO[C@@H]2CCCC[C@H]2O1` (relative stereo) registered a melting point of 20 to 22 °C.
Compound `CCc1cc(-c2ccc(-c3ccn(CC(=O)OC)n3)cc2)ccc1OC` came in with a melting point of 116 to 120 °C.
The compound `O=C(O)CCC(=O)c1ccc(-c2ccc(Br)cc2)cc1` yielded a melting point of 198 to 200 °C.
For `COC(=O)c1ccc(S(=O)(=O)Cc2c(O[C@H](Cn3ccnc3)c3ccccc3)ccc3c2CCCC3=O)cc1` the value was 105 °C; for `COc1cc(OC)c([N+](=O)[O-])c(OC)c1N`, 111 °C; for `COc1ccc(/C(C)=C/c2ccc(C(=O)O)cc2)cc1C12CC3CC(CC(C3)C1)C2`, 307 to 308 °C.
For `CCOC(=O)c1cc(=O)c2c(OCCn3c(=O)sc4ccc(Cl)cc43)cccc2o1` the value was 177 to 178 °C; for `CC1(C)[C@@H](CNC(=O)C2CCC(F)(F)CC2)CC[C@@]1(C)NCC(=O)N1C[C@@H](F)C[C@H]1C#N`, 193 to 195 °C; for `COc1ccc(OC)c2c1COC2O` (centres undefined), 156 to 158 °C.
Take `CCCC1CC(=O)Nc2c1cnn2CC` (centres undefined): the melting point was 108 to 110 °C.
With `CC(C)n1nc(-c2sc(NC(=O)Cc3ccccc3)nc2-c2ccccc2)ccc1=O`, the melting point was in the range of 250 to 252 °C.
Take `Cn1c(=O)oc2cc([N+](=O)[O-])ccc21`: the melting point was 183 to 185 °C.
`CC(=O)c1ccc(O)c(C(C)C)c1`: the melting point lay within 142 to 144 °C.
For `Cn1ncnc1COc1nn2c(-c3ccccc3F)nnc2cc1C(F)(F)F` the value was 123 to 126 °C; for `CC(C)(C)OC(=O)N1CCCC1(Cc1ccc(Br)cc1)C(=O)O` (centres undefined), 144 °C.
For the compound `COc1ccc2cc(CN3CCC(NC(=O)NC(=O)c4ccccc4)CC3)ccc2c1`, the melting point lay within 243 to 244 °C.
The same measure for `CCOC(=O)c1nnc2ccc(NC(=O)OCc3ccccc3)cc2c1O`: 250 to 252 °C; for `CON=C(C1=Nc2ccc(Cl)cc2C(c2ccccc2F)=NC1)[N+](=O)[O-]`: 130 to 133 °C.
For `O=c1oc(OCCBr)c(Cl)c2ccc(NC(=S)Nc3ccccc3)cc12` the value was 157 to 158 °C; for `CSc1ccc(C2=NC[C@@H](OC(=O)Nc3ccccc3)[C@H](c3ccccc3)O2)cc1` (racemic), 170 °C; for `CCOC(=O)c1cn(CC)c2nc(Cl)ncc2c1=O`, 156 °C.
For `CCc1ccc(CCc2ccc(-c3ccc(OC(F)F)cc3)cc2)cc1` the value was 131 °C; for `NS(=O)(=O)c1cccc(-c2cn(-c3nc(-c4ccc(Cl)s4)cc(C(F)(F)F)n3)cn2)c1`, 189 °C; for `C1=CCC(Cc2ccc(-c3ccccc3)cc2)C1`, 47 to 48 °C.
`O=Cc1ccccc1P(=O)(c1ccccc1)c1ccccc1` registered a melting point of 131 to 134 °C.
The same measure for `Cn1c(=O)c(NC(=O)Nc2ccc(F)cc2F)c(-c2ccccc2Cl)c2cccnc21`: 225 to 226 °C; for `CCS(=O)(=O)Nc1c(C)c(C)c2c(c1C)C(c1ccc(C(C)C)cc1)CO2` (centres undefined): 132 to 133 °C.
The same measure for `CCn1c(=O)c(C(N)=O)c(N)c2ccc(C)nc21`: 263 to 266 °C.
Regarding `CC(=O)OC1OCC[C@@H]1NC(=O)[C@@H](N)CC(C)C` (some centres undefined), the melting point is 75 to 80 °C.
`COC1C(OC(=O)c2ccccc2)C(COC(=O)c2ccccc2)OC1n1cc(C)c(=O)[nH]c1=O` (centres undefined) registered a melting point of 128 to 130 °C.
Compound `CC(=C(Cl)Cl)c1ccccc1Nc1ccccc1C` yielded a melting point of 49 to 51 °C.
The same measure for `COc1ccc(CN2CCC3(CCc4c3n(C)c3ccccc43)CC2)cc1`: 39 to 40 °C.
